For one experiment, the system named is apoptotic HeLa cells. The experiment can be described thus: Binding to single apoptotic HeLa cells, fluorescent microscopy. Type of experiment: cell-based. Here is the method: Chamber slides were pre-coated with 0.1% gelatin (G-1393 Sigma). Cells were seeded at a density of 8×10^4 cells/chamber, in a volume of 300 μl of culture medium. Apoptosis was induced by treatment with dopamine (RBI, MA, USA). Following 24 hours of incubation, the medium was replaced by a low serum-containing medium (2% FCS), with 500 μM of dopamine, for 18 hours. Non-treated cells that served as control, were kept in the growing medium without dopamine.
For evaluation of apoptosis, cells were stained with 1 mg/ml of Hoechst 33342 dye (Molecular probes). Twenty minutes later, cells were visualized under UV light microscopy and the relative number of apoptotic cells with condensed or fragmented chromatin was then evaluated and compared with non-apoptotic cells, showing a pale and diffuse staining. Photomicrographs were taken for documentation, but are not shown here. For staining with NST500 compounds, the tested cultures were grown as specified above and washed twice with TBS (Tris Buffered Saline; 10 mM Tris PH 8.0; 150 mM NaCl). […]
As a positive control, binding of Annexin V was performed using commercial kit (Genzyme, Mass.). Binding was evaluated with a fluorescent microscope (IX70; Olympus), using an NIBA filter (Narrow Interference Blue A from Olympus) and a ×400 magnification. […]

The next experiment relates to HUVEC cells. The experiment can be described thus: Thrombin generation by HUVEC cells. The format is cell-based, Human. The source says: In vivo, vascular endothelial cells are known to catalyze the formation of thrombin, due to expression of PS on their plasma membrane, at which pro-coagulant complexes are assembled (Van Hardee W L et al., 1994, Biochem J. 302, 305–312). Endothelial cells (EC) play an active role in determining the pro-coagulant/anti-coagulant balance in the vascular system (Gimborne M A et al., 1995, Ann. N. Y. Acad Sci 748, 122–132). Perturbed endothelial cells dramatically increase their pro-coagulant state. […] (FIG. 4D). When HUVEC cells (1.5×10^5) were incubated with the S-2366 substrate, thrombin generation was evident after a lag time of 12.5 minutes, which reflects the time required to assemble a functional complex on the HUVEC surface.
The effect of NST516 compound on HUVEC mediated-thrombin generation was studied.

Another experiment relates to BeWo cells. The experiment in a line: Binding to single trophoblast BeWo cells, fluorescent microscopy. Type of experiment: cell-based, Human. Here is the method:
The Human choriocarcinoma cell line BeWo that express low levels of PS on its plasma membrane (Rote N S et al., 1995, American J. of Reproductive Immunology 33, 114–121), was obtained from ECACC, cat # 86082803 and maintained in Ham's F12+ medium (01095-1A, Bet-Haemek, Israel). The medium was supplemented with 2mM of L-Glutamine; 100 units/ml of penicillin; 100 μg/ml of streptomycin, and 10% fetal calf serum (Bet-Haemek). The cells were passaged using 0.05% trypsine/EDTA (03-054-1B, Bet-Haemek,).

“Also recorded” adds a separate entry of the source.

“Myristate-KVSFFCKNKEKKC-K (SEQ ID NO:1) (biotin) [NST513]”: in the experiment with apoptotic HeLa cells, the “labeling of apoptotic HeLa cells” value was “potent detector of apoptotic cells” and the “labeling of control non-treated HeLa cells” value is reported as “did not exhibit significant labeling”. Also, in the experiment on HUVEC cells, the “delay in thrombin generation” value stood at 2.5 min; the “thrombin generation by HUVEC cells” value is on record as “dramatic inhibition of thrombin generation; also recorded: fully block thrombin generation; also recorded: slight inhibition of thrombin generation; also recorded: further delayed the lag period; also recorded: total blockage of thrombin formation”; the “thrombin generation by HUVEC cells, dose response” value is on record as “dose dependent inhibition of thrombin generation”. Moreover, the “binding to BeWo cells” value in the experiment on BeWo cells is recorded as “Typical membrane labeling is observed; also recorded: Binding of the compound to the whole population of BeWo cells was demonstrated”.

The values are drawn from patent US7196063B1, “Peptides and pharmaceutical compositions comprising same” (NST NeuroSurvival Technologies Ltd., priority 1999, dated 2007).
